From ChEMBL document CHEMBL1201862, “PubChem BioAssay data set” (2004)
Active and inactive are the calls of the source. Rule as the data show it: actives have a measured IC50 and inactives only a lower limit.

Molecular target: Envelope glycoprotein gp160 (Human immunodeficiency virus 1, UniProt Q6QLK5)
Experiment: inhibitors of HIV fusion peptide binding, primary screen, biochemical, uHTS, fluorescence dequenching (AID 1986)

Envelope glycoprotein gp160, sequence (Q6QLK5 whole entry, the tested form may be a part): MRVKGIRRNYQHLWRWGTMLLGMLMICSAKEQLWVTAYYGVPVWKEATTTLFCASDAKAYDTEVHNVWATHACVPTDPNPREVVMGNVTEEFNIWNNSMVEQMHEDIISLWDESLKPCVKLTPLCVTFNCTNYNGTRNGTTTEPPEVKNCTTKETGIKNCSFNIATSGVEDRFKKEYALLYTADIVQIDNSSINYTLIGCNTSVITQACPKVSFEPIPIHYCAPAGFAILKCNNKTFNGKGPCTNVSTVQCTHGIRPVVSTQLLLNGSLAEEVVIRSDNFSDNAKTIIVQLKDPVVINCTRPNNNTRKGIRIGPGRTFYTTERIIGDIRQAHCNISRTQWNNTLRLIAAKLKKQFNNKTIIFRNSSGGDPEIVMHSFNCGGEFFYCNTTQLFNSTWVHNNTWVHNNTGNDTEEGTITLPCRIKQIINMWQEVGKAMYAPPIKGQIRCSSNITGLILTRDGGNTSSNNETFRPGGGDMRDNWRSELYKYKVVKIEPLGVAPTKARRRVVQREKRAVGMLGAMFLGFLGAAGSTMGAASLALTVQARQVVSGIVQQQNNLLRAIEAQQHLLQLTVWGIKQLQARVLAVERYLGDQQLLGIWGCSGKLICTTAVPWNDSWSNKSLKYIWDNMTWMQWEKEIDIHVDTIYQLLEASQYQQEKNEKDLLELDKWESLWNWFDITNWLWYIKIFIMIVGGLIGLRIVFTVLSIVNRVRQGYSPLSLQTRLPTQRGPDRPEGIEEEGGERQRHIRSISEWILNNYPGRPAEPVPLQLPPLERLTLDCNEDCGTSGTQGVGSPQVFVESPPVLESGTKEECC

## O=c1[nH]c(=S)[nH]c2c1C(c1ccc(Br)cc1)c1c([nH]c(=S)[nH]c1=O)O2
  IC50: 11.3 µM (active)
